Key:
[1] = test system: Hep-2 Cells; experiment: Neutral red uptake assay of cytotoxicity in HEp-2 cells; type: cell-based, human; settings: Homo sapiens
Procedure: Embryonic African green monkey kidney cells (MA-104) were obtained from BioWhittaker, Inc. (Walkersville, Md.). HEp-2 cells were propagated from a human epidermoid carcinoma of the larynx (American Type Culture Collection, ATCC; Rockville, Md.). The cells were grown in minimal essential medium. (MEM, Gibco-BRL, Gaitherburg, Md.) supplemented with 0.1% NaHCO3 and 10% fetal bovine serum (FBS, Hyclone Laboratories, Logan Utah.). When performing antiviral assays, serum was reduced to 2% and 50 μg/ml gentamicin (Sigma Chemical Company, St. Louis, Mo.) was added to the medium.
(§1) This assay was performed by a modified method as described by Cavenaugh et al. (Cavenaugh et al. 1990, Invest. New Drugs 8:347-354). Briefly, medium was removed from each well of a plate scored for CPE from a CPE inhibition assay, 0.2 ml of neutral red (0.034% in PSS) was added to each of the wells of that plate and the plate incubated for 2 hr at 37° C. in the dark. The neutral red solution was removed from the wells and the wells rinsed twice with PBS (pH 7.4). Equal volumes (0.1 ml) of absolute ethanol and Sorenson citrate buffer (0.1 M sodium citrate, 0.1 M HCI, pH 4.2) were mixed together and added to each well. Plates were incubated in the dark for 30 min. at room temperature to solubilize the dye. The plates were then gently mixed on a 96-well plate adapted vortexer for 1 min. Absorbances at 540 nm and 450 nm were read with a microplate reader (Bio-Tek EL 1309; Bio-Tek Instruments, Inc. Winooski, Vt.). Absorbance values were expressed as percents of untreated controls and EC50 and IC50 values were calculated by regression analysis.

[2] = test system: RSV CH18537 (B); experiment: Neutral red uptake assay in HEp-2 cells, RSV strain CH18537; type: cell-based, Respiratory syncytial virus; settings: Table 12, neutral red
Procedure: as §1
(§2) In this series, MP351 was added once a day for two days with fresh medium

[3] = test system: RSV 393 (clinical isolate); experiment: Neutral red uptake assay in HEp-2 cells, RSV 393; type: cell-based, Respiratory syncytial virus; settings: Table 12, neutral red
Procedure: as §1, §2

[4] = test system: RSV strain A2; experiment: Neutral red uptake assay of CPE inhibition in HEp-2 cells; type: cell-based, Respiratory syncytial virus; settings: for EC50: human respiratory syncytial virus
Procedure: as §1

[5] = test system: RSV strain A2; experiment: Virus yield reduction in MA-104 cells; type: cell-based, Respiratory syncytial virus; settings: human respiratory syncytial virus, MA104, 96 h, RSV yield reduced by 90%, MOI = 0.005, added twice daily for 4 d
Source text: (§3) A comparison of the efficacies of spA4 -antiRSV3'3'T/(8281-8299) treatment and conventional ribarvirin treatment can be obtained by determining the RSV-inhibitory concentration and the cytotoxic concentration of each compound. Cultures of the human laryngeal carcinoma cell line HEp-2 and the […] renal cell line MA-104 were established and infected with an MOI=0.005. Cultures were fed twice daily. Treatment with either ribavirin or spA4 -antiRSV3'3'T/(8281-8299) was begun simultaneously with infection and continued for four days. Treatment was then withdrawn and the test read on day 5. The effects of treatment on RSV infection were reported as 1) an EC50, the concentration at which there was a 50% reduction in the observable cytopathic effects of infection and 2) an EC90, the concentration at which there was a 90% reduction in viral production. […] Therapeutic efficacy is estimated by the Selectivity Index, which is the ratio of IC50 /EC50.
(§4) as determined with RSV strain A2, MOI = 0.005
(§5) Fresh medium and oligo or ribavirin added twice daily for 4 d and test read
EC90 effective concentration to reduce RSV yield by 90%.

[6] = test system: RSV Long (A); experiment: CPE inhibition assay in HEp-2 cells, RSV strain Long; type: cell-based, Respiratory syncytial virus; settings: Table 12, CPE
Procedure: (§6) The CPE inhibition assay used in this study was performed as described by Sidwell and Huffman (Sidwell et al., 1971, Appl. Microbiol. 22:7979-7801) with slight modifications. Varying concentrations of test compounds were added to each plate containing near confluent cell monolayers (1×10^5 cells/well) followed immediately by the addition of virus at a multiplicity of infection (MOI)=0.01, and then incubated at 37° C. On the following day, the medium from each plate was removed and fresh compound added. The assay was stopped at the end of the sixth day when the virus cytopathic effect in the virus infected, untreated control cells affected all cells. All compounds were assayed for virus inhibition in quadruplicate and for cytotoxicity in duplicate. For each compound, two wells were set aside as uninfected, untreated cell controls per test and four wells per test received virus only and represented controls for virus replication. […] For all CPE-based assays, the 50% effective concentration (EC50) was calculated by regression analysis using the means of the CPE ratings at each concentration of compound.
as §2

[7] = test system: MA-104 Cells; experiment: Cytotoxicity to MA-104 cells (visual and dye uptake, rapidly dividing cells); type: cell-based, murine; settings: MA104
Source text: as §3
IC50 50% inhibitory concentration for cytotoxicity to cells (visual

[8] = test system: RSV 393 (clinical isolate); experiment: CPE inhibition assay in HEp-2 cells, RSV 393; type: cell-based, Respiratory syncytial virus; settings: Table 12, CPE
Procedure: as §6, §2

[9] = test system: RSV strain A2; experiment: Antiviral activity in MA-104 cells, visual CPE; type: cell-based, Respiratory syncytial virus
Source text: as §3, §4, §5
(§7) EC50 effective concentration to reduce RSV-induced CPE by 50%.

[10] = test system: RSV strain A2; experiment: Antiviral activity in Hep-2 cells, neutral red (reduction of RSV-induced CPE); type: cell-based, Respiratory syncytial virus
Source text: as §3
determined with RSV strain A2, MOI = 0.005
as §5, §7

[11] = HEp-2, 24 h, Table 11, neutral red, q.d. 1 day (added along with virus, never replenished), HEp2
[12] = HEp-2, 48 h, Table 11, neutral red, B.I.D. 2 days, HEp2
[13] = human respiratory syncytial virus, 48 h, once a day for two days

Compound: NC(=O)c1ncn([C@@H]2O[C@H](CO)[C@@H](O)[C@H]2O)n1 [Ribavirin]
- IC50 ([1]; HEp-2, 0 h, Table 13, neutral red, q.d., Day 0, HEp-2): 328 µM
- IC50 [1, 11]: 480 µM
- IC50 ([1]; HEp-2, 24 h, Table 13, neutral red, q.d., Day 1, HEp-2): 1130 µM
- IC50 [1, 12]: 1050 µM
- IC50 ([1]; HEp-2, 48 h, Table 13, neutral red, q.d., Day 2, HEp-2): 320 µM
- IC50 ([1]; HEp-2, 72 h, Table 11, neutral red, B.I.D. 3 days, HEp2): 700 µM
- IC50 ([1]; HEp-2, 72 h, Table 11, neutral red, q.d. 3 days, HEp2): 1010 µM
- IC50 ([1]; HEp-2, 96 h, Table 11, neutral red, B.I.D. 4 days, HEp2): 600 µM
- IC50 ([1]; HEp-2, 96 h, Table 11, neutral red, q.d. 4 days, HEp2): 730 µM
- IC50 ([1]; HEp-2, Table 12, neutral red, test with 393 (clinical isolate), HEp-2): 96 µM
- IC50 ([1]; HEp-2, Table 12, neutral red, test with CH18537 (B), HEp-2): 233 µM
- IC50 ([1]; HEp-2, Table 12, neutral red, test with Long (A), HEp-2): 280 µM
- SI [2]: 19
- EC50 [2, 13]: 12 µM
- SI [3]: 24
- EC50 [3, 13]: 4 µM
- SI ([4]; Table 11, neutral red, B.I.D. 2 days, HEp2): 130
- SI ([4]; Table 11, neutral red, B.I.D. 3 days, HEp2): > 175
- SI ([4]; Table 11, neutral red, B.I.D. 4 days, HEp2): 75
- SI ([4]; Table 11, neutral red, q.d. 1 day (added along with virus, never replenished), HEp2): > 120
- SI ([4]; Table 11, neutral red, q.d. 3 days, HEp2): 126
- SI ([4]; Table 11, neutral red, q.d. 4 days, HEp2): 36
- SI ([4]; Table 13, neutral red, q.d., Day 0, HEp-2): 27
- SI ([4]; Table 13, neutral red, q.d., Day 1, HEp-2): 28
- SI ([4]; Table 13, neutral red, q.d., Day 2, HEp-2): 80
- EC50 ([4]; HEp-2, 0 h, Table 13, neutral red, q.d., Day 0 (added immediately after virus exposure), HEp-2): 12 µM
- EC50 [4, 11]: 4 µM
- EC50 ([4]; HEp-2, 24 h, Table 13, neutral red, q.d., fresh compound up to Day 1 post infection, HEp-2): 40 µM
- EC50 [4, 12]: 8 µM
- EC50 ([4]; HEp-2, 48 h, Table 13, neutral red, q.d., fresh compound up to Day 2 post infection, HEp-2, read-out: EC50): 4 µM
- EC50 ([4]; HEp-2, 72 h, Table 11, neutral red, B.I.D. 3 days, HEp2, read-out: EC50): < 4 µM
- EC50 ([4]; HEp-2, 72 h, Table 11, neutral red, q.d. 3 days, HEp2, read-out: EC50): 8 µM
- EC50 ([4]; HEp-2, 96 h, Table 11, neutral red, B.I.D. 4 days, HEp2, read-out: EC50): 8 µM
- EC50 ([4]; HEp-2, 96 h, Table 11, neutral red, q.d. 4 days, HEp2, read-out: EC50): 20 µM
- EC90 [5]: 7 µM
- SI [6]: 17
- EC50 [6, 13]: 12 µM
- IC50 [7]: 210 µM
- SI [8]: 24
- EC50 [8, 13]: 4 µM
- SI selectivity index = IC50/EC50 [9]: 210
- EC50 ([9]; human respiratory syncytial virus, MA104, 96 h, visual CPE, MOI = 0.005, added twice daily for 4 d, read on d 5): 1 µM
- SI selectivity index = IC50/EC50 ([9]; listed as ribavirin): about 200
- SI selectivity index = IC50/EC50 [10]: 10
- EC50 ([10]; human respiratory syncytial virus, 96 h, neutral red, MOI = 0.005, added twice daily for 4 d, read on d 5): 4 µM
